Values of other authors in patent US20140099366A1, “Composition Containing Two Anti-Dementia Drugs” (priority 2005, published 2014).
Structures can show the parent of a compound that is named as a salt.

Tested on: patients with moderate to severe Alzheimer-type dementia
Settings: added to donepezil hydrochloride already administered, compared to placebo group

Structure (SMILES): CC12CC3CC(C)(C1)CC(N)(C3)C2 [memantine hydrochloride]
- cognitive ability and activities of daily living: improved
